Results published in patent EP1550446A1, “Use of 1-(5-isoquinolinesulfonyl) homopiperazine for treating and preventing hypopigmentary disorders” (priority 2003, dated 2005).

Experiments:
[1] = system: human melanoma cell line (Mel-Ho); test: Melanocyte dendrite outgrowth assay; format: cell-based; conditions: Mel-Ho cells; for dendrite formation (dendricity): 100 µM, treated for 24 hours, digital photography (Figure 1)
Description: A possibility to test the effect of a compound on melanocyte function as a measure for pigmentation, the melanocyte dendrite outgrowth assay can be performed. Vitiligo melanocytes for example have only stubby dendrites. Increasing dendricity as a prerequisite for the transfer of the melanosomes from melanocytes to the surrounding keratinocytes rescues this defect. For this assay, cells from a human melanoma cell line (Mel-Ho) were obtained from DSMZ (Deutsche Sammlung für Mikroorganismen und Zellkulturen) and were cultured according to the protocol provided by DSMZ. In short, after thawing the melanocytes were cultured in T-75 flasks in melanocyte culture media (provided by the manufacturer) until they reach 70-80% confluency. The melanocytes were then trypsinized, transferred into 5-10 new T-75 flasks, and grown again to same confluency as described above. After this expansion step the melanocytes were immediately used for the Melanocyte Dendrite Outgrowth Assay or were frozen for later use. […] Forskolin is known to cause increased melanocyte dendricity and was used as a positive control. […] Melanocyte dendrite outgrowth was documented by digital photography (Canon G2 Powershot) after 3, 6 and 24 hours.

[2] = system: normal human epidermal keratinocytes (neonatal keratinocytes, NHEK)
Procedure: To test a possible cytotoxic effect resulting in a morphological change of keratinocytes, normal human epidermal keratinocytes were obtained from Clonetics (neonatal keratinocytes, NHEK) and were cultured according to the manufacturers' protocol. In short, after thawing, the keratinocytes were cultured in T-75 flasks in keratinocyte culture media (provided by the manufacturer) until they reached 70-80% confluency. The keratinocytes were then trypsinized, transferred into new T-75 flasks at a density of 3500 cells/cm^2. After this expansion step the keratinocytes were immediately used for the cytotoxic assay procedure or were frozen for later use. […] Cells treated with media only were used as a negative control. Photos were taken at 3, 6 and 24 hours after stimulation for documentary reasons.

Cl.Cl.O=S(=O)(c1cccc2cnccc12)N1CCCNCC1 [1-(5-isoquinolinesulfonyl)homopiperazine dihydrochloride]
morphological changes as a measure for cytotoxicity (HaCaT keratinocytes): No morphological changes | dendrite formation (dendricity) [1]: dendricity was strongly stimulated | dendrite formation ([1]; concentrations lower than 100 µM): sufficient to induce dendrite formation | morphological changes as a measure for cytotoxicity [2]: No morphological changes

O=S(=O)(c1cccc2cnccc12)N1CCCNCC1 [1-(5-isoquinolinesulfonyl)homopiperazine]
morphological changes as a measure for cytotoxicity (HaCaT keratinocytes): normal morphology | dendrite formation (dendricity) [1]: strong dendrite formation | morphological changes as a measure for cytotoxicity [2]: normal morphology
